Counter-ions that a name gives are not always drawn.

Test [1] relates to eyes. The test is described as follows: Topical pharmaceutical composition administered to the eyes as drops (present-tense composition examples). To be noted: composition of Example 90 (0.50 wt %); for neuroprotective effect: topical drop 4 times per day; for effect on hyperemia, redness and ocular irritation: drop as needed. The test is classed as in vivo, patient.
Test [2] has as its system eyes. The description is as above. It is filed as in vivo, patient. Particulars: composition of Example 90 (0.50 wt %). The procedure: (§1) Topical pharmaceutical compositions for lowering intraocular pressure are prepared by conventional methods and formulated as follows: […]
A compound according to this invention is used as the 6- or 7-aminoisoquinoline derivative. When the composition is topically administered to the eyes once or more daily as 40 microliter drops, the above composition decreases intraocular pressure in a patient suffering from glaucoma.

Test [3] has as its system eyes of a Dutch-belted rabbit. Briefly: Intraocular pressure after a topical drop to the eyes of Dutch-belted rabbits. It is filed as in vivo. To be noted: composition of Example 105 (0.30 wt %), 40 microliter drop topically once daily; for decrease of intraocular pressure: in some tests. The procedure: as §1
A pharmaceutical composition was prepared according to Example 105, where the 6-aminoisoquinoline derivative was (R)-2-(dimethylamino)-N-(1-hydroxyisoquinolin-6-yl)-2-(thiophen-3-yl)acetamide hydrochloride (E79). […] In some tests, the intraocular pressure was decreased by greater than 5 mm of mercury.

[4] abbreviates: topical drop twice a day or as needed.

As to “(R)—N-(isoquinolin-6-yl amino)-2-(methylamino)-2-o-fluorophenyl acetamide dihydrochloride [Example E17]”, the neuroprotective effect entry in the test with eyes [1] was “serves as a neuroprotective agent”. The “effect on intraocular pressure” value with eyes [2] (topical drop 4 times per day) is “substantially decreases intraocular pressure”.

As to `CC(C)C[C@@H](C(=O)Nc1ccc2ccncc2c1)N(C)C(=O)OC(C)(C)C` [Example E87, (S)-tert-butyl 1-(isoquinolin-7-ylamino)-4-methyl-1-oxopentan-2-yl(methyl)carbamate], the “effect on intraocular pressure” value in the test on eyes [2] (topical drop 4 times per day) is “substantially decreases intraocular pressure”.

As for `O=C(Nc1ccc2cnccc2c1)[C@@H](c1ccccc1)N1CCCNC1` [Example E41, (R)—N-(isoquinolin-6-yl)-2-phenyl-2-(tetrahydropyrimidin-1(2H)-yl)acetamide], in the test with eyes [2] (setting [4]), the “effect on intraocular pressure” value is given as “substantially decreases intraocular pressure”.

Regarding `CN(C)[C@@H](C(=O)Nc1ccc2cnccc2c1)c1ccccc1` [Example E3, (R)-2-(dimethylamino)-N-(isoquinolin-6-yl)-2-phenylacetamide dihydrochloride], the “effect on hyperemia, redness and ocular irritation” value in the test with eyes [1] was “substantially decreases hyperemia, redness and ocular irritation”. The “effect on intraocular pressure” value with eyes [2] (topical drop twice per day) was “substantially decreases intraocular pressure”.

With `Cl.Cl.N[C@@H](C(=O)Nc1ccc2cnccc2c1)C1CCCCC1` [Example E9, (R)—N-(isoquinolin-6-ylamino)-2-amino-2-cyclohexyl acetamide dihydrochloride], the “effect on allergic symptoms” value in the test on eyes [1] (topical drop as needed) is listed as “substantially decreases allergic symptoms”.

On to `CN(C)[C@@H](C(=O)Nc1ccc2cnccc2c1)c1ccsc1.Cl` [Example E80, (R)-2-(dimethylamino)-N-(isoquinolin-6-yl)-2-(thiophen-3-yl)acetamide hydrochloride], for which, in test [3], the “effect on intraocular pressure” value was “substantially decreased intraocular pressure” and the “decrease of intraocular pressure” value was “greater than 5 mm of mercury”.

For `CN(C)[C@@H](C(=O)Nc1ccc2c(O)nccc2c1)c1ccsc1` [Example E79, (R)-2-(dimethylamino)-N-(1-hydroxyisoquinolin-6-yl)-2-(thiophen-3-yl)acetamide hydrochloride], in test [3], the “effect on intraocular pressure” value is reported as “substantially decreased intraocular pressure” and the “decrease of intraocular pressure” value was “greater than 5 mm of mercury”.

For “(R)—N-(isoquinolin-6-yl-amino)-2-(ethylamino)-2-p-methylphenyl acetamide dihydrochloride [Example E18]”, the “effect on intraocular pressure” value in the test on eyes [2] (topical drop twice per day) is given as “substantially decreases intraocular pressure”.

Turning to `CCCN[C@H](C(=O)Nc1ccc2cnccc2c1)C1CCCCC1` [Example E25, (S)-2-cyclohexyl-N-(isoquinolin-6-yl)-2-(propylamino)acetamide], the “effect on intraocular pressure” value with eyes [2] (setting [4]) is given as “substantially decreases intraocular pressure”.

`CN[C@@H](CC(C)C)C(=O)Nc1ccc2ccncc2c1` [Example E88, (S)—N-(isoquinolin-7-yl)-4-methyl-2-(methylamino)pentanamide dihydrochloride]: in the test with eyes [2] (topical drop 4 times per day), the “effect on intraocular pressure” value is recorded as “substantially decreases intraocular pressure”.

Take `O=S(=O)(Nc1ccc2cnccc2c1)C(NC1CCCCC1)c1ccccc1` (stereo not shown) [Example E50]: in the test on eyes [1] (topical drop twice per day), the “effect on allergic symptoms” value is reported as “substantially decreases allergic symptoms” and the “effect on dry eye syndrome” value is given as “relieves dry eye syndrome”.

For the compound `N[C@@H](C(=O)Nc1ccc2cnccc2c1)c1ccccc1` [Example E2, (R)-2-amino-N-(isoquinolin-6-yl)-2-phenylacetamide dihydrochloride], in the test with eyes [1], the neuroprotective effect entry is “serves as a neuroprotective agent”. Besides, the “effect on intraocular pressure” value in the test on eyes [2] (topical drop 4 times per day) is recorded as “substantially decreases intraocular pressure”.

As for `O=C(Nc1ccc2cnccc2c1)[C@@H](c1ccccc1)N1CCNCC1` [Example E40, (R)—N-(isoquinolin-6-yl)-2-phenyl-2-(piperazin-1-yl)acetamide], the “effect on hyperemia, redness and ocular irritation” value in the test with eyes [1] was “substantially decreases hyperemia, redness and ocular irritation”.
